# Values of other authors, collected in patent US20240041034A1, “ANTIMICROBIAL COMPOSITION COMPRISING A DIOCTYLDIMETHYLAMMONIUM COMPOUND” (The Procter & Gamble Company, priority 2022, published 2024).
# Details: in water, in the absence of surfactant
structure (smiles),measurement,value
"CCCCCCCC[N+](C)(C)CCCCCCCC.[Cl-] [DODMAC, dioctyldimethylammonium chloride]",Critical Micelle Concentration (CMC),~5000 ppm
